Experiments:
[1] = target: T1, nitrogenase MoFe-protein (Av1) (Azotobacter vinelandii, UniProt P07328); assay: inhibition of acetylene reduction, Dixon plot (gas chromatography); Se incorporation seen by crystallography; assay type: biochemical
T1 construct: gene nifD; purified Av1, (αβ)2 tetramer, with Av2; with MoFe-protein β subunit (NifK); Fe-protein (Av2)
Description: inhibition of acetylene reduction, Dixon plot (gas chromatography); Se incorporation seen by crystallography on nitrogenase MoFe-protein (Av1) | SeCN^- is a potent, yet reversible inhibitor of acetylene reduction

[2] = target: T1, nitrogenase MoFe-protein (Av1); assay: inhibition of acetylene reduction, Dixon plot (gas chromatography); assay type: biochemical

## N#C[SeH] [selenocyanate]
[1]
  Ki: 0.41 ± 0.03 mM

## N#CS [thiocyanate]
[2]
  Ki: 12.7 ± 1.2 mM
